Test results: patent publication US20230286973A1, “PROTEIN SECRETION INHIBITORS” (KEZAR LIFE SCIENCES, priority 2020, published 2023)

Key:
[1] = tested on: PD1-ss+10aa/Gaussia Luciferase; experiment: Dox-Induced PD1-ss-Gluc Assay; format: cell-based; conditions: 24 hr Dox induction; 293FRT/TO cells; read-out: 24 hr Dox Inducible PD1ssGluc 293FRT/TO: Mean IC50
How it was run: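 Compounds were added in DMSO/media with doxycycline and incubated at 37 °C, 5% CO2, on 293 T-REx cells plated one day earlier. These cells stably express, under tetracycline-regulated control, a Gaussia luciferase fused to the PD1 signal peptide plus 10 residues. Structures drawn without stereochemistry were tested as stereoisomer mixtures.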

[2] = tested on: TNFα-FL/Gaussia Luciferase; experiment: Dox Induced TNFα-FL-Gluc Assay; format: cell-based; conditions: for IC50: 24 hr Dox induction, 293FRT/TO cells, read-out: 24 hr Dox Inducible TNFaFLGluc 293FRT/TO: Mean IC50; for 24 hr Dox Inducible TNFaFLGluc 293FRT/TO: TNF/PD1: ratio of TNFaFLGluc IC50 to PD1ssGluc IC50
How it was run: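 Doxycycline-inducible Gaussia luciferase-tagged full-length TNFα (1-233) was expressed in stable Flp-In 293 T-REx cells. Compounds were co-added with doxycycline and incubated at 37 °C, 5% CO2.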

[3] = tested on: HER3-ss+4aa/Gaussia Luciferase; experiment: Dox-Induced Her3-ss-Gluc Assay; format: cell-based; conditions: 24 hr Dox induction; 293FRT/TO cells; read-out: 24 hr Dox Inducible Her3(ss + 4)Gluc 293FRT/TO: Mean IC50
How it was run: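 Reporter line: Flp-In 293 T-REx, T-REx-regulated HER3-ss+4aa fused to Gaussia luciferase. Compound co-added with doxycycline after overnight plating, 37° C., 5% CO2.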

[4] = tested on: IL-2-FL/Gaussia Luciferase; experiment: Dox Induced IL2-FL-Gluc Assay; format: cell-based; conditions: for IC50: 24 hr Dox induction, 293FRT/TO cells, read-out: 24 hr Dox Inducible IL2FLGluc 293FRT/TO: Mean IC50; for 24 hr Dox Inducible IL2FLGluc 293FRT/TO: IL2/PD1: ratio of IL2FLGluc IC50 to PD1ssGluc IC50
How it was run: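 Doxycycline induces an IL-2(1-153)–Gaussia luciferase fusion in a stable Flp-In 293 T-REx line. Compound exposure runs alongside induction at 37° C.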

[5] = tested on: multiple myeloma cell line NCI-H929; experiment: H929 Cell Viability Assay; format: cell-based, human; conditions: Homo sapiens, NCI-H929, 48 h, NCI-H929 cells, Celltiter-Glo
How it was run: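 Viability is scored by CellTiter-Glo luminescence following a 48-hour treatment at 37° C. Data for structures shown without stereochemistry refer to stereoisomer mixtures.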

[6] = tested on: multiple myeloma cell line U266B1; experiment: U266 Cell Viability Assay; format: cell-based, human; conditions: Homo sapiens, U-266, 48 h, U266B1 cells, Celltiter-Glo
How it was run: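 Viability is measured as luciferase signal from CellTiter-Glo following a 48-hour incubation with compound at 37° C. under 5% CO2. Where structures lack drawn stereochemistry, values refer to stereoisomer mixtures.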

[7] = Liver Microsome Stability Assay (rat); conditions: rat liver microsomes, with NADPH, 1.0 uM compound
Description: (§1) Stability of a compound was assessed in the presence of liver microsomes from various sources—mouse, rat, monkey and human liver microsomes. 1.0 uM compound, 0.4% DMSO in 0.1 M Potassium Phosphate with 1.0 mg/mL liver microsomes, were incubated at 37° C. with or without 1 mM NADPH. The samples were quenched at 0, and 30 minutes.

[8] = Liver Microsome Stability Assay (mouse); conditions: mouse liver microsomes, with NADPH, 1.0 uM compound
Description: as §1

[9] = Liver Microsome Stability Assay (human); conditions: human liver microsomes, with NADPH, 1.0 uM compound
Description: as §1

[10] = Liver Microsome Stability Assay (monkey); conditions: monkey liver microsomes, with NADPH, 1.0 uM compound
Description: as §1

| SMILES | IC50 [1] | IC50 [2] | IC50 [3] | IC50 [4] | EC50 [5] | EC50 [6] | Liver Microsome Stability (Multiple Species): Rat - % Remaining after 30 min w/NADPH [7] | Liver Microsome Stability (Multiple Species): Mouse - % Remaining after 30 min w/NADPH [8] | Liver Microsome Stability (Multiple Species): Human - % Remaining after 30 min w/NADPH [9] | Liver Microsome Stability (Multiple Species): Monkey - % Remaining after 30 min w/NADPH [10] | 24 hr Dox Inducible TNFaFLGluc 293FRT/TO: TNF/PD1 [2] | 24 hr Dox Inducible IL2FLGluc 293FRT/TO: IL2/PD1 [4] |
| --- | --- | --- | --- | --- | --- | --- | --- | --- | --- | --- | --- | --- |
| CC(=O)Nc1ccc(N2CCC[C@@H]2c2csc(NC(=O)c3cccn3Cc3ccnc(F)c3)n2)cc1F [Compound A93, (R)-N-(4-(1-(4-acetamido-3-fluorophenyl)pyrrolidin-2-yl)thiazol-2-yl)-1-((2-fluoropyridin-4-yl)methyl)-1H-pyrrole-2-carboxamide] | 12.3 nM | 187 nM | 27.1 nM | 26.3 nM | 390 nM | > 25000 nM | 0.11% | 1.18% | 4.24% | 0.14% | 15.1 | 2.1 |
| [2H]c1c([2H])c([2H])c(N2CCC[C@@H]2c2csc(NC(=O)c3cccn3Cc3ccnc(F)c3)n2)c([2H])c1[2H] [Compound A94, (R)-1-((2-fluoropyridin-4-yl)methyl)-N-(4-(1-(phenyl-d5)pyrrolidin-2-yl)thiazol-2-yl)-1H-pyrrole-2-carboxamide] | 8.73 nM | 168 nM | 14.5 nM | 17.8 nM | 642 nM | > 25000 nM | 12.8% | 10.9% | 11.1% | 0.9% | 19.2 | 2 |
| [2H]c1cc([2H])cc(N2CCC[C@@H]2c2csc(NC(=O)c3cccn3Cc3ccnc(F)c3)n2)c1 [Compound A95, (R)-1-((2-fluoropyridin-4-yl)methyl)-N-(4-(1-(phenyl-3,5-d2)pyrrolidin-2-yl)thiazol-2-yl)-1H-pyrrole-2-carboxamide] | 8.34 nM | 133 nM | 14.8 nM | 18.6 nM | 590 nM | > 25000 nM | 13.9% | 10.2% | 8.25% | 0.88% | 15.9 | 2.2 |
| CC(=O)Nc1cc(F)c(N2CCC[C@@H]2c2csc(NC(=O)c3cccn3Cc3ccnc(F)c3)n2)c(F)c1 [Compound A96, (R)-N-(4-(1-(4-acetamido-2,6-difluorophenyl)pyrrolidin-2-yl)thiazol-2-yl)-1-((2-fluoropyridin-4-yl)methyl)-1H-pyrrole-2-carboxamide] | 1.49 nM | 40.5 nM | 4.2 nM | 4.21 nM | 34.2 nM | > 25000 nM | 1% | 0.28% | 1.42% | 0.12% | 27.2 | 2.8 |
| CC(=O)N1CCC(C)(Oc2ccc(N3CCC[C@@H]3c3csc(NC(=O)c4cccn4Cc4ccnc(F)c4)n3)cc2)CC1 [Compound A97, (R)-N-(4-(1-(4-((1-acetyl-4-methylpiperidin-4-yl)oxy)phenyl)pyrrolidin-2-yl)thiazol-2-yl)-1-((2-fluoropyridin-4-yl)methyl)-1H-pyrrole-2-carboxamide] | 18.8 nM | 162 nM | 22.1 nM | 32.8 nM | 448 nM | > 25000 nM | 42.4% | 0.22% | 6.01% | 0.4% | 8.64 | 1.7 |
| CC(=O)Nc1ccc(N2CCC[C@@H]2c2csc(NC(=O)c3cccn3Cc3ccnc(F)c3)n2)c(F)c1 [Compound A98, (R)-N-(4-(1-(4-acetamido-2-fluorophenyl)pyrrolidin-2-yl)thiazol-2-yl)-1-((2-fluoropyridin-4-yl)methyl)-1H-pyrrole-2-carboxamide] | 0.91 nM | 20.1 nM | 2.05 nM | 2.25 nM | 22.4 nM | > 25000 nM | 1.18% | 1.29% | 2.43% | 0.48% | 22.2 | 2.5 |

Second part, led by results:

| IC50 [1] | IC50 [2] | IC50 [3] | IC50 [4] | EC50 [5] | EC50 [6] | Liver Microsome Stability (Multiple Species): Rat - % Remaining after 30 min w/NADPH [7] | Liver Microsome Stability (Multiple Species): Mouse - % Remaining after 30 min w/NADPH [8] | Liver Microsome Stability (Multiple Species): Human - % Remaining after 30 min w/NADPH [9] | Liver Microsome Stability (Multiple Species): Monkey - % Remaining after 30 min w/NADPH [10] | SMILES | 24 hr Dox Inducible TNFaFLGluc 293FRT/TO: TNF/PD1 [2] | 24 hr Dox Inducible IL2FLGluc 293FRT/TO: IL2/PD1 [4] |
| --- | --- | --- | --- | --- | --- | --- | --- | --- | --- | --- | --- | --- |
| 127 nM | 5910 nM | 284 nM | 348 nM | 5300 nM | > 25000 nM | 0.49% | 1.28% | 1.85% | 0.12% | CC(=O)Nc1c(F)cc(N2CCC[C@@H]2c2csc(NC(=O)c3cccn3Cc3ccnc(F)c3)n2)cc1F [Compound A99, (R)-N-(4-(1-(4-acetamido-3,5-difluorophenyl)pyrrolidin-2-yl)thiazol-2-yl)-1-((2-fluoropyridin-4-yl)methyl)-1H-pyrrole-2-carboxamide] | 46.7 | 2.8 |
| 22.8 nM | 195 nM | 32 nM | 34.2 nM | 442 nM | > 25000 nM | 14.8% | 3.12% | 3.16% | 0.24% | CC(=O)N1CCC(Oc2ccc(N3CCC[C@@H]3c3csc(NC(=O)c4cccn4Cc4ccnc(F)c4)n3)c(F)c2)CC1 [Compound A100, (R)-N-(4-(1-(4-((1-acetylpiperidin-4-yl)oxy)-2-fluorophenyl)pyrrolidin-2-yl)thiazol-2-yl)-1-((2-fluoropyridin-4-yl)methyl)-1H-pyrrole-2-carboxamide] | 8.57 | 1.5 |
| 47.9 nM | 379 nM | 68.2 nM | 94.3 nM | 1270 nM | 12800 nM | 76.5% | 62.7% | 2.2% | 14.5% | NCCOc1ccc(N2CCC[C@@H]2c2csc(NC(=O)c3cccn3Cc3ccnc(F)c3)n2)cc1 [Compound A101, (R)-N-(4-(1-(4-(2-aminoethoxy)phenyl)pyrrolidin-2-yl)thiazol-2-yl)-1-((2-fluoropyridin-4-yl)methyl)-1H-pyrrole-2-carboxamide] | 7.92 | 2 |
